The source of these data is patent US12655130B2 (ASSEMBLY BIOSCIENCES, INC., priority 2020, dated 2026).

pEC50: −log10 of the molar value. Like-named read-outs stand apart in the source and are kept apart here.

In general, pEC50 refers to the EC50 on a negative log10 scale, so that one unit is a factor of ten.

For the experiment, the system named is HBV viral load (viral production from HepAD38 cells). As to the kind of experiment: Activity of test compounds on viral production from HepAD38 cells (viral load by qPCR of HBV core sequence). The class given is cell-based. Particulars: viral load lowering, 5 days, qPCR of supernatant, read-out: VL HepAD38 EC50 range. The procedure, abridged: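 EC50 and CC50 come from four-parameter logistic fits: HBV core DNA in supernatant by TaqMan qPCR against DNA standards, normalised to DMSO controls, and cell viability by CellTiter-Glo. Cells were plated at 50,000/well without tetracycline (2% FBS) and exposed to compounds (highest 10 μM) for 5 days, 37 °C.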
(In qPCR the cycle at which signal appears reflects the starting amount.)

[1] abbreviates: Hepatitis B virus, HePAD38, 120 h.

On to `Cn1cnc(C2CC3CC(O)(c4cc(NCC(F)(F)F)nn4C)CC3C2)c1C(=O)Nc1ccc(F)c(Cl)c1` (stereo not drawn) [Example 197, N-(3-Chloro-4-fluorophenyl)-4-(5-hydroxy-5-(1-methyl-3-((2,2,2-trifluoroethyl)amino)-1H-pyrazol-5-yl)octahydropentalen-2-yl)-1-methyl-1H-imidazole-5-carboxamide], for which the negative-log EC50 (pEC50) under setting [1] is greater than 8.00.

`Cn1cnc(C2CC3CC(O)(c4cc(OCC(O)CO)nn4C)CC3C2)c1C(=O)Nc1ccc(F)c(Cl)c1` (stereo not drawn) [Example 204, N-(3-Chloro-4-fluorophenyl)-4-(5-(3-(2,3-dihydroxypropoxy)-1-methyl-1H-pyrazol-5-yl)-5-hydroxyoctahydropentalen-2-yl)-1-methyl-1H-imidazole-5-carboxamide]: under setting [1], the negative logarithm of the EC50 (pEC50) was greater than 8.00.

`Cn1cnc(C2CC3CC(O)(CS(=O)(=O)c4ccc(F)cc4)CC3C2)c1C(=O)Nc1ccc(F)c(Cl)c1` (stereo not drawn) [Example 11, N-(3-Chloro-4-fluorophenyl)-4-(5-(((4-fluorophenyl)sulfonyl)methyl)-5-hydroxyoctahydropentalen-2-yl)-1-methyl-1H-imidazole-5-carboxamide]: the negative logarithm of the EC50 (pEC50) under setting [1] was 7.30 to 8.00.

As for `Cc1nc(C2CC3CC(O)CC3C2)c(C(=O)Nc2ccc(F)c(Cl)c2)n1C` (stereo not drawn) [Example 24, N-(3-Chloro-4-fluorophenyl)-4-(5-hydroxyoctahydropentalen-2-yl)-1,2-dimethyl-1H-imidazole-5-carboxamide], under setting [1], the negative logarithm of the EC50 (pEC50) is greater than 8.00.

For `CCn1nc(N)cc1C1(O)CC2CC(c3ncn(C)c3C(=O)Nc3ccc(F)c(Cl)c3)CC2C1` (stereo not drawn) [Example 76], under setting [1], the pEC50 was greater than 8.00.

Regarding `CNc1nc(C2CC3CC(=O)CC3C2)c(C(=O)Nc2ccc(F)c(Cl)c2)n1C` (stereo not drawn) [Example 29, N-(3-Chloro-4-fluorophenyl)-1-methyl-2-(methylamino)-4-(5-oxooctahydropentalen-2-yl)-1H-imidazole-5-carboxamide], the negative logarithm of the EC50 (pEC50) under setting [1] was 7.30 to 8.00.

Consider `CNc1nc(C2CC3CC(O)CC3C2)c(C(=O)Nc2ccc(F)c(Cl)c2)n1C` (stereo not drawn) [Example 30, N-(3-Chloro-4-fluorophenyl)-4-(5-hydroxyoctahydropentalen-2-yl)-1-methyl-2-(methylamino)-1H-imidazole-5-carboxamide], for which, under setting [1], the negative logarithm of the EC50 (pEC50) was greater than 8.00.

With `Cn1cnc(C2CC3CC(O)(c4cc(NCC(C)(C)O)nn4C)CC3C2)c1C(=O)Nc1ccc(F)c(Cl)c1` (stereo not drawn) [Example 214, N-(3-Chloro-4-fluorophenyl)-4-(5-hydroxy-5-(3-((2-hydroxy-2-methylpropyl)amino)-1-methyl-1H-pyrazol-5-yl)octahydropentalen-2-yl)-1-methyl-1H-imidazole-5-carboxamide], the pEC50 under setting [1] is greater than 8.00.

Regarding `Cn1cnc(C2CC3CC(O)(c4[nH]ncc4F)CC3C2)c1C(=O)Nc1ccc(F)c(Cl)c1` (stereo not drawn) [Example 148, N-(3-Chloro-4-fluorophenyl)-4-(5-(4-fluoro-1H-pyrazol-5-yl)-5-hydroxyoctahydropentalen-2-yl)-1-methyl-1H-imidazole-5-carboxamide], under setting [1], the pEC50 was greater than 8.00.

Take `Cn1cnc(C2CC3CC(O)(Cn4cccn4)CC3C2)c1C(=O)Nc1ccc(F)c(Cl)c1` (single isomer, unassigned) [Example 129, 4-(5-((1H-pyrazol-1-yl)methyl)-5-hydroxyoctahydropentalen-2-yl)-N-(3-chloro-4-fluorophenyl)-1-methyl-1H-imidazole-5-carboxamide]: the pEC50 is 7.30 to 8.00.

With `CC(C)Cc1cc(C2(O)CC3CC(c4ncn(C)c4C(=O)Nc4ccc(F)c(Cl)c4)CC3C2)n(C)n1` (stereo not drawn) [Example 196, N-(3-Chloro-4-fluorophenyl)-4-(5-hydroxy-5-(3-isobutyl-1-methyl-1H-pyrazol-5-yl)octahydropentalen-2-yl)-1-methyl-1H-imidazole-5-carboxamide], the negative logarithm of the EC50 (pEC50) under setting [1] was greater than 8.00.

Take `Cn1cnc(C2CC3CC(NC4CC4)CC3C2)c1C(=O)Nc1ccc(F)c(Cl)c1` (single isomer, unassigned) [Example 45, 5-[-5-(Cyclopropylamino)-1,2,3,3a,4,5,6,6a-octahydropentalen-2-yl]-N-(3-chloro-4-fluorophenyl)-3-methyl-4-imidazolecarboxamide]: the pEC50 is 7.30 to 8.00.

`CC(=O)c1cc(C2(O)CC3CC(c4ncn(C)c4C(=O)Nc4ccc(F)c(Cl)c4)CC3C2)n(C)n1` (stereo not drawn) [Example 58, 4-(5-(3-Acetyl-1-methyl-1H-pyrazol-5-yl)-5-hydroxyoctahydropentalen-2-yl)-N-(3-chloro-4-fluorophenyl)-1-methyl-1H-imidazole-5-carboxamide]: the negative logarithm of the EC50 (pEC50) under setting [1] was greater than 8.00.

As to `CC(O)COc1cc(C2(O)CC3CC(c4ncn(C)c4C(=O)Nc4ccc(F)c(Cl)c4)CC3C2)n(C)n1` (single isomer, unassigned) [Example 209, N-(3-Chloro-4-fluorophenyl)-4-(5-hydroxy-5-(3-(2-hydroxypropoxy)-1-methyl-1H-pyrazol-5-yl)octahydropentalen-2-yl)-1-methyl-1H-imidazole-5-carboxamide], under setting [1], the pEC50 was greater than 8.00.

Turning to `Cn1cnc(C2CC3CC(O)(c4cc(C(C)(C)C#N)nn4C)CC3C2)c1C(=O)Nc1ccc(F)c(Cl)c1` (stereo not drawn) [Example 104, N-(3-chloro-4-fluorophenyl)-4-(5-(3-(2-cyanopropan-2-yl)-1-methyl-1H-pyrazol-5-yl)-5-hydroxyoctahydropentalen-2-yl)-1-methyl-1H-imidazole-5-carboxamide], the negative-log EC50 (pEC50) under setting [1] was greater than 8.00.

For `Cn1cnc(C2CC3CC(O)(c4cc(OCC(O)CO)nn4C)CC3C2)c1C(=O)Nc1ccc(F)c(Cl)c1` (single isomer, unassigned) [Example 206, N-(3-Chloro-4-fluorophenyl)-4-(5-(3-(2,3-dihydroxypropoxy)-1-methyl-1H-pyrazol-5-yl)-5-hydroxyoctahydropentalen-2-yl)-1-methyl-1H-imidazole-5-carboxamide], the pEC50 is greater than 8.00.

On to `Cn1cnc(C2CC3CC(O)(c4cc(C(O)C(F)(F)F)nn4C)CC3C2)c1C(=O)Nc1ccc(F)c(C#N)c1` (stereo not drawn) [Example 107, N-(3-Cyano-4-fluorophenyl)-4-(5-hydroxy-5-(1-methyl-3-(2,2,2-trifluoro-1-hydroxyethyl)-1H-pyrazol-5-yl)octahydropentalen-2-yl)-1-methyl-1H-imidazole-5-carboxamide], for which the negative logarithm of the EC50 (pEC50) under setting [1] is greater than 8.00.

Consider `Cn1cnc(C2CC3CC(O)(c4c[nH]nc4C(F)(F)F)CC3C2)c1C(=O)Nc1ccc(F)c(C#N)c1` (stereo not drawn) [Example 193, N-(3-Cyano-4-fluorophenyl)-4-(5-hydroxy-5-(3-(trifluoromethyl)-1H-pyrazol-4-yl)octahydropentalen-2-yl)-1-methyl-1H-imidazole-5-carboxamide], for which, under setting [1], the negative-log EC50 (pEC50) is greater than 8.00.

`Cn1cnc(C2CC3CC(O)(c4c(F)c(OCC(O)C(F)(F)F)nn4C)CC3C2)c1C(=O)Nc1ccc(F)c(Cl)c1` (stereo not drawn) [Example 62, N-(3-Chloro-4-fluorophenyl)-4-(5-(4-fluoro-1-methyl-3-(3,3,3-trifluoro-2-hydroxypropoxy)-1H-pyrazol-5-yl)-5-hydroxyoctahydropentalen-2-yl)-1-methyl-1H-imidazole-5-carboxamide]: under setting [1], the pEC50 was greater than 8.00.

Regarding `Cn1cnc(C2CC3CC(O)CC3C2)c1C(=O)Nc1ccc(F)c(Cl)c1` (single isomer, unassigned) [Example 2, N-(3-Chloro-4-fluorophenyl)-4-(5-hydroxyoctahydropentalen-2-yl)-1-methyl-1H-imidazole-5-carboxamide], the negative-log EC50 (pEC50) under setting [1] is greater than 8.00.

For the compound `CC(N)c1nn(C)cc1C1(O)CC2CC(c3ncn(C)c3C(=O)Nc3ccc(F)c(Cl)c3)CC2C1` (stereo not drawn) [Example 184, 4-(5-(3-(1-Aminoethyl)-1-methyl-1H-pyrazol-4-yl)-5-hydroxyoctahydropentalen-2-yl)-N-(3-chloro-4-fluorophenyl)-1-methyl-1H-imidazole-5-carboxamide], the pEC50 under setting [1] was greater than 8.00.

As to `Cn1cnc(C2CC3CC(O)(c4c(C#N)cnn4C)CC3C2)c1C(=O)Nc1ccc(F)c(Cl)c1` (stereo not drawn) [Example 125, N-(3-chloro-4-fluorophenyl)-4-(5-(4-cyano-1-methyl-1H-pyrazol-5-yl)-5-hydroxyoctahydropentalen-2-yl)-1-methyl-1H-imidazole-5-carboxamide], the pEC50 under setting [1] is greater than 8.00.

Consider `Cn1cnc(C2CC3CC(O)(c4cc(OCC(C)(O)CO)nn4C)CC3C2)c1C(=O)Nc1ccc(F)c(Cl)c1` (stereo not drawn) [Example 218, N-(3-Chloro-4-fluorophenyl)-4-(5-(3-(2,3-dihydroxy-2-methylpropoxy)-1-methyl-1H-pyrazol-5-yl)-5-hydroxyoctahydropentalen-2-yl)-1-methyl-1H-imidazole-5-carboxamide], for which the pEC50 under setting [1] is greater than 8.00.

In the case of `Cn1cnc(C2CC3CC(O)(c4c([N+](=O)[O-])cnn4C)CC3C2)c1C(=O)Nc1ccc(F)c(Cl)c1` (stereo not drawn) [Example 127, N-(3-chloro-4-fluorophenyl)-4-(5-hydroxy-5-(1-methyl-4-nitro-1H-pyrazol-5-yl)octahydropentalen-2-yl)-1-methyl-1H-imidazole-5-carboxamide], under setting [1], the pEC50 was 7.30 to 8.00.

Consider `Cn1c(N)nc(C2CC3CC(O)CC3C2)c1C(=O)Nc1ccc(F)c(Cl)c1` (stereo not drawn) [Example 28, 2-Amino-N-(3-chloro-4-fluorophenyl)-4-(5-hydroxyoctahydropentalen-2-yl)-1-methyl-1H-imidazole-5-carboxamide], for which the negative logarithm of the EC50 (pEC50) under setting [1] is greater than 8.00.

For the compound `CC(C)Oc1cc(C2(O)CC3CC(c4ncn(C)c4C(=O)Nc4ccc(F)c(Cl)c4)CC3C2)n(C)n1` (stereo not drawn) [Example 54, N-(3-Chloro-4-fluorophenyl)-4-(5-hydroxy-5-(3-isopropoxy-1-methyl-1H-pyrazol-5-yl)octahydropentalen-2-yl)-1-methyl-1H-imidazole-5-carboxamide], under setting [1], the pEC50 is greater than 8.00.

With `Cn1cnc(C2CC3CC(O)(c4c(F)cnn4C)CC3C2)c1C(=O)Nc1ccc(F)c(Cl)c1` (stereo not drawn) [Example 124, N-(3-chloro-4-fluorophenyl)-4-(5-(4-fluoro-1-methyl-1H-pyrazol-5-yl)-5-hydroxyoctahydropentalen-2-yl)-1-methyl-1H-imidazole-5-carboxamide], the pEC50 under setting [1] is greater than 8.00.
